Assay: xn = mol fraction of the nth substance listed
Conditions: 101 kPa, Liquid; for speed of sound: Single path-length method

COC(C)(C)C [2-methoxy-2-methylpropane] + c1ccccc1
Conditions | mass density, 295.65 K [kg/m3] | mass density, 298.15 K [kg/m3] | mass density, 300.65 K [kg/m3] | mass density, 303.15 K [kg/m3] | speed of sound, 298.15 K [m/s] | speed of sound, 300.65 K [m/s] | speed of sound, 303.15 K [m/s] | speed of sound, 305.65 K [m/s]
x1 = 0.052 | – | 864.111 | 861.451 | 858.785 | 1281.3 | 1269.7 | 1258 | 1246.5
x1 = 0.111 | – | 853.986 | 851.345 | 848.697 | 1262.6 | 1251 | 1239.5 | 1228
x1 = 0.202 | – | 838.954 | 836.329 | 833.698 | 1234.8 | 1223.2 | 1211.7 | 1200.3
x1 = 0.303 | – | 823.323 | 820.71 | 818.089 | 1205.8 | 1194.3 | 1182.8 | 1171.4
x1 = 0.397 | 812.151 | 809.552 | 806.945 | 804.33 | 1179.8 | 1168.3 | 1156.9 | 1145.5
x1 = 0.5 | 797.75 | 795.155 | 792.548 | 789.936 | 1152.5 | 1141 | 1129.6 | 1118.2
x1 = 0.596 | 784.966 | 782.366 | 779.76 | 777.144 | 1128.2 | 1116.7 | 1105.2 | 1093.8
x1 = 0.698 | 771.959 | 769.356 | 766.742 | 764.119 | 1103 | 1091.5 | 1080 | 1068.6
x1 = 0.791 | 760.733 | 758.126 | 755.506 | 752.877 | 1081.5 | 1070 | 1058.5 | –
x1 = 0.902 | 747.886 | 745.267 | 742.638 | 739.994 | 1056.2 | 1044.7 | 1033.2 | –
x1 = 0.95 | 742.485 | 739.86 | 737.224 | 734.576 | 1045.5 | 1033.8 | 1022.3 | –
x1 = 1 | 737.036 | 734.406 | 731.766 | 729.112 | 1036.9 | 1025.4 | 1013.9 | –

Source: the NIST ThermoML archive (doi:10.1007/s10765-007-0223-x)
